molecular target: T1, AHR (Homo sapiens, UniProt P35869); experiment: In vitro assay 1: antagonism in human cell line (AHR transactivation, firefly luciferase reporter, kynurenic acid prestimulated); type: cell-based; details: AHR Antagonism Human IC50 [M]
T1 construct: U87 MG glioblastoma cells (ATCC #HTB-14) endogenously expressing AHR; endogenous in cells; host or cells: U87 MG glioblastoma cells (ATCC #HTB-14)
T1 sequence (P35869 11-848): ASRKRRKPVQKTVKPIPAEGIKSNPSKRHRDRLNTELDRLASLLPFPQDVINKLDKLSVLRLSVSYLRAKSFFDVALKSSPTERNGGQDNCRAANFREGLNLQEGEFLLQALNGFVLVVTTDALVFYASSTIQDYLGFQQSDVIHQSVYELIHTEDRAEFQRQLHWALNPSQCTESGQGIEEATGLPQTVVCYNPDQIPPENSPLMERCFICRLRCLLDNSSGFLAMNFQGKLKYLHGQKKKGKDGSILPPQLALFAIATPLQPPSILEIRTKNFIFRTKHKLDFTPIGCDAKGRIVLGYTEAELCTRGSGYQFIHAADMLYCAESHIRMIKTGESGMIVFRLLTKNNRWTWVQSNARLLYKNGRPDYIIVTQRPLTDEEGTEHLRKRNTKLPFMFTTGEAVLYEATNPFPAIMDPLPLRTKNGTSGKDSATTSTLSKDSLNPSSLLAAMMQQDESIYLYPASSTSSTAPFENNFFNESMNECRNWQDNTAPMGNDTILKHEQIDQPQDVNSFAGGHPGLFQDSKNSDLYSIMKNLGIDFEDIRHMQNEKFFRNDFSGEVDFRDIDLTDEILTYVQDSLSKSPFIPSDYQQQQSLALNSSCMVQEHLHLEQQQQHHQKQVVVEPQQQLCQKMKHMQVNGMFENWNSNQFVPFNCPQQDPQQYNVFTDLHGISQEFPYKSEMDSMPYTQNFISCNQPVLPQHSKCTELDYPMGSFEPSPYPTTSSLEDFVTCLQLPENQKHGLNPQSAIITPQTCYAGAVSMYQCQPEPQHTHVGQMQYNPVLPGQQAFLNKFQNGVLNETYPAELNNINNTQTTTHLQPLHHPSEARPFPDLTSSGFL
Description: Examples were tested in selected biological assays one or more times. When tested more than once, data are reported as either average values or as median values, wherein • the average value, also referred to as the arithmetic mean value, represents the sum of the values obtained divided by the number of times tested, and • the median value represents the middle number of the group of values when ranked in ascending or descending order. If the number of values in the data set is odd, the median is the middle value. If the number of values in the data set is even, the median is the arithmetic mean of the two middle values.
Transactivation assays were carried out in U87 MG glioblastoma cells (ATCC #HTB-14) endogenously expressing AHR. In addition the cells were stably transfected with an AHR inducible firefly luciferase reporter gene construct that carried AHR-binding sites (DRE) in its promoter and a renilla reporter gene construct with constitutively active promoter. Kynurenic acid is an endogenous AHR activating ligand and was used to prestimulate test cells prior to testing the antagonistic properties of compounds.
As positive inhibition control cells supplemented with 150 μM kynurenic acid were incubated in presence of 5 μM Staurosporin. Normalization was done by positive and negative controls.
Firefly luciferase and Renilla activity was determined by the DualGlo Luciferase Assay System (Promega, #2920). Renilla activity was used to assess toxic effects of compounds.

| IC50 [M] | Compound |
| --- | --- |
| 2.24e-09 | Cc1sccc1-c1nc2c3ccccc3nc(N[C@@H]3CCCCNC3=O)n2n1 [Example 346, (3R)-3-{[2-(2-methylthiophen-3-yl)[1,2,4]triazolo[1,5-c]quinazolin-5-yl]amino}azepan-2-one] |
| 9.72e-10 | Cc1cc(-c2nc3c4ccccc4nc(N[C@@H]4CCCCNC4=O)n3n2)cs1 [Example 352, (3R)-3-{[2-(5-methylthiophen-3-yl)[1,2,4]triazolo[1,5-c]quinazolin-5-yl]amino}azepan-2-one] |
| 1.35e-09 | CCC[C@@H](Nc1nc2ccccc2c2nc(-c3csc(C)c3)nn12)C(=O)NC [Example 357, N-methyl-N^2-[2-(5-methylthiophen-3-yl)[1,2,4]triazolo[1,5-c]quinazolin-5-yl]-D-norvalinamide] |
| 3.22e-07 | Cn1cc(-c2nc3c4cccc(C5(C(F)(F)F)CC5)c4nc(N[C@@H]4CNCCNC4=O)n3n2)cn1 [Example 430] |
| 9.27e-08 | CC[C@@H](Nc1nc2ccccc2c2nc(-c3cccc(Br)c3)nn12)C(N)=O [Example 445, (2R)-2-{[2-(3-bromophenyl)[1,2,4]triazolo[1,5-c]quinazolin-5-yl]amino}butanamide] |
| 1.17e-07 | CN(C)c1ccccc1-c1nc2c3ccccc3nc(N[C@@H]3CCCCNC3=O)n2n1 [Example 455, (3R)-3-({2-[2-(dimethylamino)phenyl][1,2,4]triazolo[1,5-c]quinazolin-5-yl}amino)azepan-2-one] |
| 7.67e-08 | CN1CC[C@@H](Nc2nc3ccccc3c3nc(-c4ccccc4OC(F)(F)F)nn23)C1=O [Example 460, (3R)-1-methyl-3-({2-[2-(trifluoromethoxy)phenyl][1,2,4]triazolo[1,5-c]quinazolin-5-yl}amino)pyrrolidin-2-one] |
| 9.92e-10 | O=C1NCCCC[C@H]1Nc1nc2ccccc2c2nc(-c3ccc(Cl)cc3OC(F)F)nn12 [Example 525, (3R)-3-({2-[4-chloro-2-(difluoromethoxy)phenyl][1,2,4]triazolo[1,5-c]quinazolin-5-yl}amino)azepan-2-one] |
| 2.8e-09 | O=C1NCCCCCC1Nc1nc2ccccc2c2nc(-c3ccc(Cl)cc3OC(F)F)nn12 (stereo not shown) [Example 529, 3-({2-[4-chloro-2-(difluoromethoxy)phenyl][1,2,4]triazolo[1,5-c]quinazolin-5-yl}amino)azocan-2-one] |
| > 2e-05 | CN1CCCC[C@H](Nc2nc3ccccc3c3nc(-c4ccc(Cl)cc4OC(F)F)nn23)C1=O [Example 530, (3S)-3-({2-[4-chloro-2-(difluoromethoxy)phenyl][1,2,4]triazolo[1,5-c]quinazolin-5-yl}amino)-1-methylazepan-2-one] |
| 1.29e-09 | CC[C@@H](Nc1nc2ccccc2c2nc(-c3ccc(Cl)cc3OC(F)F)nn12)C(N)=O [Example 531, (2R)-2-({2-[4-chloro-2-(difluoromethoxy)phenyl][1,2,4]triazolo[1,5-c]quinazolin-5-yl}amino)butanamide] |
| 2.24e-06 | Cn1cc(-c2nc3c4cc(C(F)(F)F)ccc4nc(N[C@@H]4CCCCNC4=O)n3n2)cn1 [Example 546, (3R)-3-{[2-(1-methyl-1H-pyrazol-4-yl)-9-(trifluoromethyl)[1,2,4]triazolo[1,5-c]quinazolin-5-yl]amino}azepan-2-one] |
| > 5.71e-06 | COc1ccc(-c2nc3c4cc(C5CC5)ccc4nc(N[C@@H]4CCCCNC4=O)n3n2)cc1 [Example 547, (3R)-3-{[9-cyclopropyl-2-(4-methoxyphenyl)[1,2,4]triazolo[1,5-c]quinazolin-5-yl]amino}azepan-2-one] |
| 5.35e-06 | COc1ccc2c(c1)nc(N[C@@H]1CCCCNC1=O)n1nc(-c3cnn(C)c3)nc21 [Example 550] |
| 1.69e-09 | O=C1NCCCC[C@H]1Nc1nc2c(C(F)(F)F)cccc2c2nc(-c3cccc(F)c3)nn12 [Example 581, (3R)-3-{[2-(3-fluorophenyl)-7-(trifluoromethyl)[1,2,4]triazolo[1,5-c]quinazolin-5-yl]amino}azepan-2-one] |
| 2.79e-07 | Cn1cc(-c2nc3c4cccc(C(F)(F)F)c4nc(N[C@@H]4CCNC4=O)n3n2)cn1 [Example 586, (3R)-3-{[2-(1-methyl-1H-pyrazol-4-yl)-7-(trifluoromethyl)[1,2,4]triazolo[1,5-c]quinazolin-5-yl]amino}pyrrolidin-2-one] |
| > 2e-05 | COc1cc2nc(N[C@@H]3CCCCNC3=O)n3nc(-c4cnn(C)c4)nc3c2cc1OC [Example 589, (3R)-3-{[8,9-dimethoxy-2-(1-methyl-1H-pyrazol-4-yl)[1,2,4]triazolo[1,5-c]quinazolin-5-yl]amino}azepan-2-one] |
| 3.65e-07 | COc1ccc(-c2nc3c4cc(OC)c(OC)cc4nc(N[C@@H]4CCCCNC4=O)n3n2)cc1 [Example 590, (3R)-3-{[8,9-dimethoxy-2-(4-methoxyphenyl)[1,2,4]triazolo[1,5-c]quinazolin-5-yl]amino}azepan-2-one] |
| 8.44e-08 | Nc1ccc(-c2nc3c4ccccc4nc(N[C@@H]4CCCCNC4=O)n3n2)cc1 [Example 620, (3R)-3-{[2-(4-aminophenyl)[1,2,4]triazolo[1,5-c]quinazolin-5-yl]amino}azepan-2-one] |
| 9.2e-10 | Cc1cc(-c2nc3c4ccccc4nc(N[C@@H]4CCCCNC4=O)n3n2)ccc1F [Example 626, (3R)-3-{[2-(4-fluoro-3-methylphenyl)[1,2,4]triazolo[1,5-c]quinazolin-5-yl]amino}azepan-2-one] |
| 1.09e-05 | COc1ccc(-c2nc3c4c(C(C)C)cccc4nc(N[C@@H]4CCCCNC4=O)n3n2)cc1 [Example 726, (3R)-3-{[2-(4-methoxyphenyl)-10-(propan-2-yl)[1,2,4]triazolo[1,5-c]quinazolin-5-yl]amino}azepan-2-one] |
| 1.65e-09 | O=C1NCCCC[C@H]1Nc1nc2c(C(F)(F)F)cccc2c2nc(-c3nc(C4CC4)cs3)nn12 [Example 747, (3R)-3-{[2-(4-cyclopropyl-1,3-thiazol-2-yl)-7-(trifluoromethyl)[1,2,4]triazolo[1,5-c]quinazolin-5-yl]amino}azepan-2-one] |
| 9.19e-06 | COc1cccc2c1nc(N[C@@H]1CCCCNC1=O)n1nc(-c3cn[nH]c3)nc21 [Example 755, (3R)-3-{[7-methoxy-2-(1H-pyrazol-4-yl)[1,2,4]triazolo[1,5-c]quinazolin-5-yl]amino}azepan-2-one] |

same assay, conditions: AHR Antagonism Human IC50 [M], firefly luciferase reporter

| IC50 [M] | Compound |
| --- | --- |
| 1.34e-07 | Cn1cc(-c2nc3c4cccc(C(C)(C)O)c4nc(N[C@@H]4CCCCNC4=O)n3n2)cn1 [Example 861, (3R)-3-{[7-(2-hydroxypropan-2-yl)-2-(1-methyl-1H-pyrazol-4-yl)[1,2,4]triazolo[1,5-c]quinazolin-5-yl]amino}azepan-2-one] |
| > 2e-05 | C[C@@H](Nc1nc2c(C(F)(F)F)cccc2c2nc(-c3cnn(C)c3)nn12)C(=O)O [Example 869, N-[2-(1-methyl-1H-pyrazol-4-yl)-7-(trifluoromethyl)[1,2,4]triazolo[1,5-c]quinazolin-5-yl]-D-alanine] |
